# Columns and labels:
# Type in all cases: in vivo
# [1] = system: Bemisia tabaci (Gennadius) nymphs; assay: Joint toxicity of I-72 + pyrifluquinazon, Example 77, Table 77; settings: Bemisia tabaci; A = compound I-72, B = pyrifluquinazon; cotton leaf-disk spraying; 96 hours; read-out: LC50
# Method: Test target: Bemisia tabaci (Gennadius) nymphs, a sensitive strain reared indoors.
# (§1) Preparation of the pesticide solution: according to different test requirements, the test samples were accurately weighed respectively with an electronic analytical balance. The technical pesticides were dissolved in acetone, and then diluted with 0.1% Tween 80 water into a series of pesticide solutions with a certain concentration gradient according to the experimental design dosage.
# Experimental method: first, cotton leaves with neat and consistent Bemisia tabaci (Gennadius) nymphs were selected and made into leaf disks, with about 20 insects on each leaf disk. Then, they were evenly sprayed with the pesticide solution in the order from low dosage to high dosage according to the experimental design, with 1.5 mL for each leaf and 3 replicates for each treatment. In addition, a blank control was set up.
# (§2) The treated test materials were placed in an observation room, and the temperature, humidity and illumination of the observation room could be adjusted as needed. The number of dead and live insects was investigated 96 hours later. […] Then, the co-toxicity coefficient of each ratio was calculated using the Sun Y-P method to evaluate the mixing effect (the same as in Example 1).
# [2] = system: 3rd-instar larvae of Hyphantria cunea; assay: Joint toxicity of I-72 + organophosphorus insecticides, poplar leaf dipping, Example 20, Table 20; settings: foliar, A = compound I-72, B = triazophos, poplar leaf dipping, 72 hours, read-out: LC50
# Description: Test target: 3rd-instar larvae of Hyphantria cunea, a sensitive strain reared indoors.
# Experimental method: first, fresh and tender poplar leaves were selected, cut into small sections of 5 cm, and dipped in the prepared pesticide solution for 10 s in the order from low dosage to high dosage according to the experimental design. After natural air-drying in the shade, they were placed in a 9-cm-diameter Petri dish with filter paper, and uniform and healthy test insects were introduced, with 10 insects for each treatment and 3 replicates for each treatment. In addition, a blank control was set up.
# The treated test materials were placed in an observation room, and the temperature, humidity and illumination of the observation room could be adjusted as needed. The number of dead and live insects was investigated 72 hours later.
# [3] = system: adult Bemisia tabaci (Gennadius); assay: Joint toxicity of I-72 + abamectin, seedling spraying, Example 13, Table 13; settings: Bemisia tabaci; adults, kidney bean seedling spraying, 72 h; A = compound I-72, B = abamectin; read-out: LC50
# Description: Test subject: adult Bemisia tabaci (Gennadius), a sensitive strain reared indoors.
# Experimental method: the spraying method was adopted. The kidney bean seedlings cultivated in the greenhouse were selected and evenly sprayed with the pesticide solution in the order from low dosage to high dosage according to the experimental design. After natural air-drying in the shade, a self-made glass cover was put on, and the test insects were introduced, with 20-30 insects for each treatment and 3 replicates. In addition, a blank control was set up. The number of dead and live insects was investigated 72 hours later. The corrected mortality rate was calculated using the Abbott's formula, and the DPS data processing software was used for statistical analysis to calculate the toxicities (LC50 values) of the single test pesticides and the mixtures under the test ratios.
# (§3) The test conditions, the preparation of the pesticide solution and the evaluation method were the same as those in Example 1.
# The test subject, the test method, the test conditions, the preparation of the pesticide solution and the evaluation method were the same as those in Example 12.
# [4] = system: adult Tetranychus urticae Koch; assay: Joint toxicity of I-72 + spirobudifen, Example 29, Table 29; settings: A = compound I-72, B printed spirotetramat (title: spirobudifen), potted-seedling spraying, 72 hours, read-out: LC50
# Method: as §1
# In addition, a blank control was set up.
# The treated test materials were placed in an observation room, and the temperature, humidity and illumination of the observation room could be adjusted as needed.
# [5] = system: 3rd-instar larvae of Chilo suppressalis (Walker); assay: Joint toxicity of I-72 + methoxyfenozide, Example 53, Table 53; settings: A = compound I-72, B = methoxyfenozide, rice stem dipping, 72 hours, read-out: LC50
# Method: Test target: 3rd-instar larvae of Chilo suppressalis (Walker).
# as §1
# Experimental method: first, tender rice stems were selected and dipped in the prepared pesticide solution for 10 s in the order from low dosage to high dosage according to the experimental design. After natural air-drying in the shade, they were placed in a 9-cm-diameter Petri dish with filter paper, and uniform and healthy test insects were introduced, with 10 insects for each treatment and 3 replicates for each treatment. In addition, a blank control was set up.
# as §2, with “72” for “96”
# [6] = system: early 2nd-instar grubs of Holotrichia diomphalia Bates; assay: whole plant or invertebrate; settings: Holotrichia diomphalia; A = compound I-72, B = tebuconazole; insect-dipping; 72 hours; read-out: LC50
# Method: Test target: early 2nd-instar grubs of Holotrichia diomphalia Bates.
# Test conditions: temperature: 24-26° C., humidity: RH 60%, and illumination: L:D=14:10
# as §1
# Experimental method: the activity against Holotrichia diomphalia Bates was determined by the insect-dipping method. The early 2nd-instar grubs of Holotrichia diomphalia Bates were selected. The target insects were dipped into the pesticide solution for 10 s and then taken out. Excess pesticide solution was absorbed with filter paper. […] A treatment without the pesticide was set as the blank control.
# The test insects were transferred to a multi-well culture plate with fresh potato pieces and placed in an observation room, and the temperature, humidity and illumination of the observation room could be adjusted as needed. The number of dead and live insects was investigated 72 hours later. The corrected mortality rate was calculated using the Abbott's formula, and statistical analysis was performed with the DPS data processing software to obtain the toxicity regression equation and LC50 value of each single test pesticide and each mixture of different ratios.
# [7] = system: 2nd-instar larvae of Chilo suppressalis (Walker); assay: Joint toxicity of I-72 + azadirachtin, Example 36, Table 36; settings: A = compound I-72, B = azadirachtin, rice stalk spraying, 72 hours, chlorantraniliprole-resistant strain, read-out: LC50
# Description: Test target: 2nd-instar larvae of Chilo suppressalis (Walker). The insect source was collected from Nanchang, Jiangxi Province, and it is the 11th generation continuously cultured indoors, with a relatively high resistance level to amide pesticides such as chlorantraniliprole.
# Experimental method: the spraying method was adopted. Rice stalks with the same length and thickness were selected, cut into the same length, and evenly sprayed with the pesticide solution in the order from low dosage to high dosage according to the experimental design, with 1.5 mL of the pesticide solution for each treatment. The stalks were placed in a 6-cm-diameter Petri dish with filter paper. After natural air-drying in the shade, uniform and healthy test insects were introduced, with 10 insects for each treatment and 4 replicates for each treatment. In addition, a blank control was set up. The number of dead and live insects was investigated 72 hours later. The corrected mortality rate was calculated using the Abbott's formula, and the DPS data processing software was used for statistical analysis to calculate the toxicities (LC50 values) of the single test pesticides and the mixtures under the test ratios.
# as §3
smiles,measurement,setting,value
CN(C(=O)c1ccc2c(c1)OC(F)(F)O2)c1cccc(C(=O)Nc2c(Br)cc(C(F)(C(F)(F)F)C(F)(F)F)cc2OC(F)F)c1F [Compound I-72],LC50,[1],10.8 µg/mL
same,LC50,[2],5.74 µg/mL
same,LC50,[3],2.97 µg/mL
same,LC50,[4],41.6 µg/mL
same,LC50,[5],1.02 µg/mL
same,LC50,[6],63.4 µg/mL
same,LC50,[7],0.822 µg/mL
